Assay results from patent US20180312493A1, “Antibiotic Compounds, Pharmaceutical Formulations Thereof And Methods And Uses Therefor” (Simon Fraser University, priority 2015, published 2018).
≈ marks a conversion by molar mass, not a printed value.

What was measured:
[1] = system: A. baumannii (ATCC 19606); assay: In vitro susceptibility, broth microdilution (MIC); assay type: cell-based; conditions: Acinetobacter baumannii, ATCC19606; A. baumannii ATCC 19606 (values without asterisk); read-out: Antimicrobial activity (MIC) A. baumannii
Procedure, shortened: (§1)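 MIC determined by CLSI 2-fold broth microdilution in cation-adjusted Mueller–Hinton broth at ~2.5×10^5 CFU/ml, final compound 0.031–64 μg/ml, 18–24 h at 37 °C. MIC is the lowest concentration giving complete growth inhibition by background-corrected OD600 versus compound-free wells; duplicate or triplicate wells, replicated at least twice.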

[2] = system: S. typhimurium (ATCC BAA-185); assay: In vitro susceptibility, broth microdilution (MIC); assay type: cell-based; conditions: Salmonella enterica, read-out: Antimicrobial activity (MIC) S. typhimurium
Procedure, shortened: as §1

P. aeruginosa (PA01) = assay: In vitro susceptibility, broth microdilution (MIC); assay type: cell-based; conditions: Pseudomonas aeruginosa, read-out: Antimicrobial activity (MIC) P. aeruginosa
Procedure, shortened: as §1

MRSA Pyk = target: T1, MRSA Pyk (Staphylococcus aureus, UniProt Q6GG09); assay: MRSA pyruvate kinase (PK) activity, continuous LDH-coupled assay; assay type: biochemical, methicillin resistant S. aureus (MRSA252)
T1 construct: made in house; host or cells: E. coli BL-21 (DE3)
T1 sequence (Q6GG09 whole entry): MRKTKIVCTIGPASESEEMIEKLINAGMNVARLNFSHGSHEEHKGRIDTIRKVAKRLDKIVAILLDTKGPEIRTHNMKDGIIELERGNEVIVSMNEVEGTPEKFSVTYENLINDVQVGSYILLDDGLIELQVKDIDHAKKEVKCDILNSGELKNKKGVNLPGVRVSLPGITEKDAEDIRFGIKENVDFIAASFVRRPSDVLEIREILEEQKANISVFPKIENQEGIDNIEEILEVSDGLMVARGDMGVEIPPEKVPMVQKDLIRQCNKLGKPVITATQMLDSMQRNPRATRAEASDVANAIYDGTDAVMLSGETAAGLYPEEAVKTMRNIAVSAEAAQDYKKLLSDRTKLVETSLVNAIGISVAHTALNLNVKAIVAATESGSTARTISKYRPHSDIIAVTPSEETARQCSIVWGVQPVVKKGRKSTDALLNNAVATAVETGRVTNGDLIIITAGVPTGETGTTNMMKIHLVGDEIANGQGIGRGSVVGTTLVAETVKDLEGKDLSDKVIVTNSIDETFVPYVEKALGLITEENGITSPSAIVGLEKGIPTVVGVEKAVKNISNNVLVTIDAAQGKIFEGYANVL
Procedure, shortened: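 His-tagged MRSA PK (strain Sanger 252) and human PK isoforms expressed in E. coli BL-21 (DE3) and Ni-NTA purified, used at 15 nM in an LDH-coupled assay following NADH oxidation at 340 nm, 30° C, up to 5 min, ≤1% DMSO. IC50 from four-parameter variable-slope fit; Ki with PEP 2-20 mM, ADP fixed 2 mM, inhibitor 0-400 nM.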

Row | SMILES | MIC [1] [µg/mL] | MIC [2] [µg/mL] | MIC (P. aeruginosa (PA01)) [µg/mL] | IC50 (MRSA Pyk) [nM]
1 | NCCOc1cc2[nH]c(-c3cc4ccc(Br)cc4[nH]3)cc2cc1Cl [Compound 201, 2-((6′-Bromo-5-chloro-1H,1′H-[2,2′-biindol]-6-yl)oxy)ethan-1-amine] | 16 (≈ 39.5 µM) | 16 (≈ 39.5 µM) | 16 (≈ 39.5 µM) | < 100
2 | CN(C)CCOC(=O)c1c(/C=C/c2ccc(Cl)cc2)[nH]c2cc(Br)ccc12 [Compound 60, (E)-2-(Dimethylamino)ethyl 6-bromo-2-(4-chlorostyryl)-1H-indole-3-carboxylate] | > 64 |  |  | < 100
3 | C[N+](C)(C)CCON=C(c1c(-c2cc3cc(Cl)ccc3[nH]2)[nH]c2cc(Br)ccc12)C(F)(F)F (racemic) [Compound 221, 2-(((1-(6-Bromo-5′-chloro-1H,1′H-[2,2′-biindol]-3-yl)-2,2,2-trifluoroethylidene)amino)oxy)-N,N,N-trimethylethan-1-aminium Iodide] | 32 | 64 | 32 | < 100
4 | NCCNC(=O)c1c(-c2cc3cc(Cl)ccc3[nH]2)[nH]c2cc(Br)ccc12 [Compound 206, N-(2-Aminoethyl)-6-bromo-5′-chloro-1H,1′H-[2,2′-biindole]-3-carboxamide] | 16 (≈ 37.1 µM) | 64 (≈ 148 µM) | 32 (≈ 74.1 µM) | < 100
